# Laboratory results published in US20130202586A1, “STEM CELL THERAPY USING INHIBITORS OF LYSOPHOSPHATIDIC ACID” (priority 2011, published 2013).
# Columns and labels:
# [1] = system: plated neurospheres (human NSC); conditions: 10 μM LPA, Dottori et al.; cited from earlier work
# [2] = system: noggin-treated cells (human NSC); conditions: 10 μM LPA, 11-14 days, Dottori et al.; cited from earlier work
# adult mouse NSC = assay: Neuronal differentiation of adult mouse NSC; assay type: cell-based
# Excerpt: However, and similarly to data obtained in human NSC, LPA inhibited the neuronal differentiation of adult mouse NSC by maintaining them as NSC when plated in conditions normally inducing neuronal differentiation. […] These effects were independent of apoptosis or proliferation.
# [3] = system: noggin-treated cells (human NSC); assay: Neurosphere formation from noggin-treated human embryonic stem cells; assay type: cell-based; conditions: 5-7 days
# Procedure: (§1) Neurospheres were formed and cultured as described in Dottori, M. et al. (2008), supra. Briefly, human embryonic stem cells (HES-2, HES-3, and HES-4, WiCell Research Institute, Madison Wis.) were cultured according to previously published methods. Neuronal induction using noggin was performed according to published methods and after growth and subculture, cells were grown as neurospheres in the presence of growth factors. Neurospheres could be plated on dishes coated with laminin or fibronectin. When plated onto laminin and cultured with neural basal medium (NBM, R&D Systems, Minneapolis Minn.), neurospheres typically differentiate into neurons. Quantitation of neuron-forming spheres (a measure of neuronal differentiation) was done by counting the number of neurospheres from which neuronal outgrowth was visible.
# Plated neurospheres were incubated in the presence or absence of LPA (Sigma Aldrich, St. Louis, Mo.) and/or antibody (concentrations shown) for 5 days. Dilutions of LPA were made in 0.1% fatty acid-free bovine serum albumin (final concentration 0.01% BSA).
# As shown by Dottori et al., LPA inhibits the ability of NSC to form neurospheres, even in the presence of bFGF and EGF. […] […] Dottori, M. et al. (2008), supra. […]
# [4] = system: plated neurospheres (human NSC); assay: Neuronal differentiation: neuron-forming neurospheres; assay type: cell-based
# Procedure: as §1
# […] […] Dilutions of LPA were made in 0.1% fatty acid-free bovine serum albumin (final concentration 0.01% BSA).
# The effect of LPA on an additional differentiation step, the differentiation of NSC toward mature cells, was also measured. When plated on laminin in NBM, neurospheres typically differentiate into neurons, as assayed by visible neurons, elongated cell shape and/or positive staining for β-tubulin.
# Using the same conditions used in Example 2 for LPA treatment alone, plated neurospheres were treated with 10 μM LPA alone, or with anti-LPA antibody B3 or B7 (1 mg/ml) alone, or with 10 μM LPA in combination with 1 mg/ml of antibody B3 or B7. Similarly, cells were treated with 10 μM LPA alone, humanized anti-LPA antibody LT3015 alone (1 mg/ml) or with 10 μM LPA in combination with 1 mg/ml LT3015. The percent of neuron-forming neurospheres was quantitated as in Example 2 (beta-tubulin staining and quantification of neuron-forming spheres, as described in Dottori, et al (2008)). […] Neurosphere samples treated with B3 antibody alone had neuron-forming neurospheres equivalent to control (100%). […] The antibody B7, under similar conditions, had little to no effect in this experiment (37.00±5.31% of control). […]
substance,measurement,setting,value
lysophosphatidic acid [LPA],neuronal cells from plated neurospheres,[1],did not give rise to neuronal cells
same,% of cultures formed neurospheres,[2],13.47%±6.94
same,neurosphere formation or growth of mouse NSC,adult mouse NSC,did not modify neurosphere formation or growth
same,"nestin positive, % of total cells","adult mouse NSC; LPA 10 μM, three days",87.55±3.20%
same,"βIII-tubulin expression, % of total cells","adult mouse NSC; LPA 10 μM, three days",26.25±2.08%
same,% neurosphere formation,[3]; 10 μM LPA,13.500±5.590%
same,% neurosphere formation,[3]; LPA at 1 μM,50±12.50%
same,"neuron-forming neurospheres, % of untreated control","[4]; Example 4, 10 μM LPA alone",approximately 25.00±6.45%
same,"neuron-forming spheres, % of control","[4]; Example 5, 3 days, 10 μM LPA alone",approximately 26%
same,"neuron-forming neurospheres, pool of data",[4]; LPA alone,25.00±6.45%
